Source: patent publication US8697694B2, “Substituted pyridine and pyrimidine derivatives and their use in treating viral infections” (priority 2008, dated 2014)
Like-named read-outs stand apart in the source and are kept apart here.

System: HCV replicon cells
Test: Cell-based HCV replicon assay (replicon RNA level by real time PCR, Taqman)
Settings: Hepatitis C virus, 72 h, HCV replicon cells, read-out: EC90 (μM) range
Method in brief: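 Readout: ΔCT between NS5B replicon RNA and GAPDH by real-time RT-PCR in lysates harvested on day 3, fitted sigmoidally; EC50 at ΔCT=1, EC90 at ΔCT=3.2. Compounds tested at ten 2-fold dilutions from 25 μM to 1 μM start, 10% FBS, 0.5% DMSO.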

[1] = harvested day 3, replicon RNA by real time PCR, given as number
[2] = harvested on day 3, replicon RNA by real time PCR, calculated EC90 reported as range class
[3] = replicon RNA level by real time PCR, harvested day 3
[4] = harvested day 3, replicon RNA by real time PCR, reported as range class

CCCOc1cc2cc(-c3c(C)nc(NCC4CC4)nc3N[C@@H]3C[C@H](CO)[C@@H](O)[C@H]3O)oc2cn1 [Example 62]
EC90 [1]: 0.7 µM

Cc1cc2cc(-c3c(Cl)nc(NCC4CCOCC4)nc3N[C@@H]3C[C@H](CO)[C@@H](O)[C@H]3O)oc2c(C)n1 [Example 458]
EC90 [2]: < 0.5 µM

CSc1nc(C)c(-c2nc3ccccc3s2)c(N[C@@H]2C[C@H](CO)[C@@H](O)[C@H]2O)n1 [Example 326]
EC90 [2]: 0.5 to 5 µM

Cc1nc(NCc2cccs2)nc(N[C@@H]2C[C@H](C)[C@@H](O)[C@H]2O)c1-c1nc2ccccc2s1 [Example 337]
EC90 [2]: < 0.5 µM

COCCNc1nc(C)c(-c2cc3cc(C(F)(F)F)ncc3o2)c(N[C@@H]2C[C@H](CO)[C@H]3OC(C)(C)O[C@H]32)n1 [Example 135]
EC90 [2]: > 5 µM

Cc1nc(NCc2cccc(C(F)(F)F)c2)nc(N[C@@H]2C[C@H](CO)[C@H]3OC(C)(C)O[C@H]32)c1-c1nc2ccccc2s1 [Example 237]
EC90 [2]: 0.5 to 5 µM

CCOc1cc2cc(-c3c(C)nc(NCC4CC4)nc3N[C@@H]3C[C@H](CO)[C@@H](O)[C@H]3O)oc2c(C)n1 [Example 30]
EC90 [1]: 0.14 µM

CCCc1nccc2sc(-c3c(C)nc(NCC4CC4)nc3N[C@@H]3C[C@H](CO)[C@@H](O)[C@H]3O)nc12 [Example 1369]
EC90 [3]: < 0.5 µM

CO[C@@H](C)CNc1nc(C)c(-c2nc3ccccc3s2)c(N[C@@H]2C[C@H](CO)[C@@H](O)[C@H]2O)n1 [Example 229]
EC90 [4]: < 0.5 µM

Nc1nc(Cl)c(-c2cc3cc(-c4nc5ccccc5o4)ccc3o2)c(N[C@@H]2C[C@H](CO)[C@@H](O)[C@H]2O)n1 [Example 180]
EC90 [4]: > 5 µM

CCCNc1nc(C)c(-c2nc3ccccc3s2)c(N[C@@H]2C[C@H](CO)[C@@H](O)[C@H]2O)n1 [Example 422]
EC90 [2]: < 0.5 µM

CCCOc1cc2cc(-c3c(C)nc(NCCOC)nc3N[C@@H]3C[C@H](CO)[C@@H](O)[C@H]3O)oc2c(C)n1 [Example 35]
EC90 [1]: 0.1 µM

Cc1nc(NCc2cccn2C)nc(N[C@@H]2C[C@H](CO)[C@H]3OC(C)(C)O[C@H]32)c1-c1nc2ccccc2s1 [Example 468]
EC90 [2]: < 0.5 µM

COc1cc(CNc2nc(C)c(-c3nc4ccccc4s3)c(N[C@@H]3C[C@H](CO)[C@@H](O)[C@H]3O)n2)cc(OC)c1OC [Example 711]
EC90 [2]: < 0.5 µM

COC(C)(C)CNc1nc(C)c(-c2nc3ccccc3s2)c(N[C@@H]2C[C@H](CO)[C@@H](O)[C@H]2O)n1 [Example 473]
EC90 [2]: < 0.5 µM

Cc1csc(CNc2nc(C)c(-c3nc4ccccc4s3)c(N[C@@H]3C[C@H](CO)[C@@H](O)[C@H]3O)n2)n1 [Example 707]
EC90 [2]: < 0.5 µM

CCOc1ccc2nc(-c3c(C)nc(N(C)C)nc3N[C@@H]3C[C@H](CO)[C@@H](O)[C@H]3O)sc2c1 [Example 207]
EC90 [4]: > 5 µM

CNc1ccc2sc(-c3c(Cl)nc(N)nc3N[C@@H]3C[C@H](CO)[C@@H](O)[C@H]3O)nc2c1 [Example 194]
EC90 [4]: < 0.5 µM

Cc1nc(N[C@H](C)c2ccc(OC(F)(F)F)cc2)nc(N[C@@H]2C[C@H](CO)[C@@H](O)[C@H]2O)c1-c1nc2c(C3CC3)nccc2s1 [Example 1401]
EC90 [3]: < 0.5 µM

COCc1cc2cc(-c3c(Cl)nc(N)nc3N[C@@H]3C[C@H](CO)[C@@H](O)[C@H]3O)oc2c(C)n1 [Example 311]
EC90 [4]: < 0.5 µM

Cc1nc(NCC(F)(F)F)nc(N[C@@H]2C[C@@H](CN(CC3CC3)S(C)(=O)=O)[C@@H](O)[C@H]2O)c1-c1nc2ccccc2s1 [Example 1394]
EC90 [3]: 0.5 to 5 µM

Cc1nc(NCC2CC2)nc(N[C@@H]2C[C@H](C(C)O)[C@@H](O)[C@H]2O)c1-c1nc2ccccc2s1 (single isomer, unassigned) [Example 1644]
EC90 [3]: < 0.5 µM

Cc1nc(N[C@H](C)c2ccc(OC(F)(F)F)cc2)nc(N[C@@H]2C[C@H](CO)[C@@H](O)[C@@]2(C)O)c1-c1nc2cnccc2s1 [Example 1397]
EC90 [3]: < 0.5 µM

Cc1nc(NCC(F)(F)F)nc(N[C@@H]2C[C@H](COC(=O)N3CCOCC3)[C@@H](O)[C@H]2O)c1-c1nc2ccccc2s1 [Example 63]
EC90 [1]: 0.45 µM

Nc1nc(Cl)c(-c2nc3ccc(OCc4ccccc4)cc3s2)c(N[C@@H]2C[C@H](CO)[C@@H](O)[C@H]2O)n1 [Example 199]
EC90 [4]: > 5 µM
